Data: patent US20080210905A1, “ORGANIC-ELECTROLUMINESCENCE-MATERIAL-CONTAINING SOLUTION, METHOD FOR SYNTHESIZING ORGANIC ELECTROLUMINESCENCE MATERIAL, COMPOUND SYNTHESIZED BY THE METHOD, METHOD FOR FORMING THIN FILM OF ORGANIC ELECTROLUMINESCENCE MATERIAL, THIN FILM OF ORGANIC ELECTROLUMINESCENCE MATERIAL AND ORGANIC …” (Idemitsu Kosan Co., Ltd., priority 2006, published 2008)

Assays:
[1] = Solubility evaluation: compound stirred in toluene, visual check for insoluble matter; type: physicochemical; conditions: for Presence of insoluble matter: 0.01 g of anthracene compound and 1 g of toluene, stirred, visual check; for solubility in toluene: concluded from visual check of 0.01 g compound in 1 g toluene
Source text: In order to evaluate a relationship between the soluble portion B and the solubility, how the solubility was changed depending on the bonding number U of the solubility portion B was examined.
As the compound, an anthracene compound as represented by the following formula was used.
A solubility portion B of the compound was structured as represented by the formula (3), and the bonding number of the solubility portion is represented by (a).
With the above structure, compounds respectively having bonding numbers (a) of 1, 2, 3 and 6 were synthesized.
Then, 0.01 g of the anthracene compound and 1 g of toluene were put into a glass bottle to be stirred.
Whether or not any insoluble matter was present in the solution was observed by a visual check.
In order to evaluate a relationship between unit(s) structuring the soluble portion B and the solubility, how the solubility was changed depending on the structure of the solubility portion B was examined.
Compounds used in the examination were AN-1, AN-3, AN-4 and an-1.
For evaluation of the solubility, as in the solubility evaluation 1, 0.01 g of the anthracene compound and 1 g of toluene were put into a glass bottle to be stirred. Then, whether or not any insoluble matter was present in the solution was observed by a visual check.

[2] = Solubility of compound (a) in toluene, evaluated in advance; type: physicochemical

SMILES	Presence of insoluble matter [1]	solubility in toluene [1] [wt %]	solubility in toluene [2] [wt %]
c1ccc(-c2ccc(-c3cccc(-c4cccc(-c5cccc(-c6cccc(-c7cccc(-c8c9ccccc9c(-c9ccc%10ccccc%10c9)c9ccccc89)c7)c6)c5)c4)c3)cc2)cc1 [AN-4]	no insoluble matter present	≥ 1	–
c1ccc(-c2ccccc2-c2ccc3c(-c4ccccc4)c4ccccc4c(-c4ccccc4)c3c2)cc1 [compound (a)]	–	–	10
c1ccc(-c2cccc(-c3ccc(-c4ccc(-c5cccc(-c6cccc(-c7cccc(-c8c9ccccc9c(-c9ccc%10ccccc%10c9)c9ccccc89)c7)c6)c5)cc4)cc3)c2)cc1 [AN-3]	no insoluble matter present	≥ 1	–
